Tested on: Hepatotoxicity
Test: Human drug-induced liver injury (DILI) modelling dataset from Ekins et al

| SMILES | Hepatotoxicity | Hepatotoxicity (Liver) |
| --- | --- | --- |
| N=C(N)NCCN1CCCCCCC1.N=C(N)NCCN1CCCCCCC1.O=S(=O)(O)O [GUANETHIDINE SULFATE] | DILI positive (test set) |  |
| Oc1c(Cl)cc(Cl)c(Cl)c1Cc1c(O)c(Cl)cc(Cl)c1Cl [HEXACHLOROPHENE] | DILI positive (test set) |  |
| CCN(CC)CCNc1ccc(CO)c2sc3ccccc3c(=O)c12 [HYCANTHONE] | DILI positive (training set) |  |
| NN [HYDRAZINE] | DILI positive (test set) |  |
| NS(=O)(=O)c1cc2c(cc1Cl)NCNS2(=O)=O [HYDROCHLOROTHIAZIDE] | DILI positive (training set) |  |
| C[C@]12CCC(=O)C=C1CC[C@@H]1[C@@H]2[C@@H](O)C[C@@]2(C)[C@H]1CC[C@]2(O)C(=O)CO [HYDROCORTISONE] | DILI negative (training set) |  |
| NC(=O)NO [HYDROXYUREA] | DILI positive (training set) |  |
| CC(C)Cc1ccc(CC(=O)O)cc1 [IBUFENAC] | DILI positive (test set) |  |
| CC(C)Cc1ccc(C(C)C(=O)O)cc1 (configuration not stated) [IBUPROFEN] | DILI negative (test set) |  |
| CC(=O)[C@]1(O)Cc2c(O)c3c(c(O)c2[C@@H](O[C@H]2C[C@H](N)[C@H](O)[C@H](C)O2)C1)C(=O)c1ccccc1C3=O.Cl [IDARUBICIN HYDROCHLORIDE] | DILI negative (training set) |  |
| O=c1[nH]c(=O)n([C@H]2C[C@H](O)[C@@H](CO)O2)cc1I [IDOXURIDINE] | DILI positive (training set) |  |
| O=P1(NCCCl)OCCCN1CCCl (configuration not stated) [IFOSFAMIDE] | DILI positive (test set) |  |
| CN(C)CCCN1c2ccccc2CCc2ccccc21.Cl [IMIPRAMINE HYDROCHLORIDE] | DILI positive (training set) |  |
| Nc1cc(-c2ccncc2)c[nH]c1=O [INAMRINONE] | DILI positive (training set) |  |
| CC1(c2ccccc2)Cc2cc(OCC(=O)O)c(Cl)c(Cl)c2C1=O (configuration not stated) [INDACRINONE] | DILI positive (test set) |  |
| CC(C)(C)NC(=O)[C@@H]1CN(Cc2cccnc2)CCN1C[C@@H](O)C[C@@H](Cc1ccccc1)C(=O)N[C@H]1c2ccccc2C[C@H]1O.O=S(=O)(O)O [INDINAVIR SULFATE] | DILI negative (test set) |  |
| COc1ccc2c(c1)c(CC(=O)O)c(C)n2C(=O)c1ccc(Cl)cc1 [INDOMETHACIN] | DILI positive (training set) |  |
| O[C@H]1[C@H](O)[C@@H](O)[C@H](O)[C@@H](O)[C@H]1O [INOSITOL] | DILI negative (test set) |  |
| C[C@H](O)C(=O)Nc1c(I)c(C(=O)NC(CO)CO)c(I)c(C(=O)NC(CO)CO)c1I [IOPAMIDOL] | DILI positive (test set) |  |
| CC(C)NNC(=O)c1ccncc1 [IPRONIAZID] | DILI positive (test set) |  |
| CCCCC1=NC2(CCCC2)C(=O)N1Cc1ccc(-c2ccccc2-c2nnn[nH]2)cc1 [IRBESARTAN] | DILI negative (test set) |  |
| Cc1cc(C(=O)NNCc2ccccc2)no1 [ISOCARBOXAZID] | DILI negative (test set) |  |
| NNC(=O)c1ccncc1 [ISONIAZID] | DILI positive (training set) |  |
| CC(C)NCC(O)c1ccc(O)c(O)c1.Cl (configuration not stated) [ISOPROTERENOL HYDROCHLORIDE] |  | DILI negative (training set) |

| SMILES | Hepatotoxicity | Hepatotoxicity (Liver) |
| --- | --- | --- |
| O=[N+]([O-])O[C@H]1CO[C@H]2[C@@H]1OC[C@H]2O[N+](=O)[O-] [ISOSORBIDE DINITRATE] | DILI negative (test set) |  |
| CC1=C(/C=C/C(C)=C/C=C/C(C)=C\C(=O)O)C(C)(C)CCC1 [ISOTRETINOIN] | DILI positive (training set) |  |
| Cc1cc(NC(=O)C2=C(O)c3ccccc3S(=O)(=O)N2C)no1 [ISOXICAM] | DILI negative (test set) |  |
| CC(COc1ccccc1)NC(C)C(O)c1ccc(O)cc1.Cl (configuration not stated) [ISOXSUPRINE HYDROCHLORIDE] | DILI negative (training set) |  |
| CC(=O)N1CCN(c2ccc(OCC3COC(Cn4ccnc4)(c4ccc(Cl)cc4Cl)O3)cc2)CC1 (configuration not stated) [KETOCONAZOLE] | DILI positive (test set) |  |
| CC(C(=O)O)c1cccc(C(=O)c2ccccc2)c1 (configuration not stated) [KETOPROFEN] | DILI negative (test set) |  |
| NC(CO)(CO)CO.O=C(c1ccccc1)c1ccc2n1CCC2C(=O)O (configuration not stated) [KETOROLAC TROMETHAMINE] | DILI positive (training set) |  |
| CN1CCC(=C2c3ccccc3CC(=O)c3sccc32)CC1 [KETOTIFEN] | DILI negative (training set) |  |
| CC(CCc1ccccc1)NCC(O)c1ccc(O)c(C(N)=O)c1 (configuration not stated) [LABETALOL] | DILI positive (training set) |  |
| Nc1ccn([C@@H]2CS[C@H](CO)O2)c(=O)n1 [LAMIVUDINE] | DILI negative (training set) |  |
| CS(=O)(=O)CCNCc1ccc(-c2ccc3ncnc(Nc4ccc(OCc5cccc(F)c5)c(Cl)c4)c3c2)o1 [LAPATINIB] | DILI positive (test set) |  |
| Cc1oncc1C(=O)Nc1ccc(C(F)(F)F)cc1 [LEFLUNOMIDE] | DILI positive (training set) |  |
| Nc1nc(=O)c2c([nH]1)NCC(CNc1ccc(C(=O)N[C@@H](CCC(=O)[O-])C(=O)[O-])cc1)N2C=O.[Ca+2] (some centres not stated) [LEUCOVORIN CALCIUM] | DILI negative (test set) |  |
| N[C@@H](Cc1ccc(O)c(O)c1)C(=O)O [LEVODOPA] | DILI negative (training set) |  |
| C[C@H]1COc2c(N3CCN(C)CC3)c(F)cc3c(=O)c(C(=O)O)cn1c23.C[C@H]1COc2c(N3CCN(C)CC3)c(F)cc3c(=O)c(C(=O)O)cn1c23.O [LEVOFLOXACIN] | DILI negative (training set) |  |
| CCN(CC)CC(=O)Nc1c(C)cccc1C [LIDOCAINE] |  | DILI negative (training set) |
| N[C@@H](Cc1cc(I)c(Oc2ccc(O)c(I)c2)c(I)c1)C(=O)O [LIOTHYRONINE] | DILI negative (test set) |  |
| NCCCC[C@H](N[C@@H](CCc1ccccc1)C(=O)O)C(=O)N1CCC[C@H]1C(=O)O [LISINOPRIL ANHYDROUS] | DILI positive (training set) |  |
| C[C@H](CCC(=O)O)[C@H]1CC[C@H]2[C@@H]3CC[C@@H]4C[C@H](O)CC[C@]4(C)[C@H]3CC[C@]12C [LITHOCHOLIC ACID] | DILI positive (training set) |  |
| CN(C)C(=O)C(CCN1CCC(O)(c2ccc(Cl)cc2)CC1)(c1ccccc1)c1ccccc1.Cl [LOPERAMIDE HYDROCHLORIDE] | DILI negative (training set) |  |
| N[C@@H](C(=O)N[C@@H]1C(=O)N2C(C(=O)O)=C(Cl)CC[C@H]12)c1ccccc1 [LORACARBEF ANHYDROUS] | DILI negative (test set) |  |
| CCCCc1nc(Cl)c(CO)n1Cc1ccc(-c2ccccc2-c2nn[nH]n2)cc1 [LOSARTAN] | DILI positive (test set) |  |
| Cc1ccc(Nc2c(F)cccc2Cl)c(CC(=O)O)c1 [LUMIRACOXIB] | DILI positive (test set) |  |
| O=C(O)/C=C\C(=O)O [MALEIC ACID] | DILI positive (training set) |  |

| SMILES | Hepatotoxicity | Hepatotoxicity (Liver) |
| --- | --- | --- |
| CNCCCC12CCC(c3ccccc31)c1ccccc12 [MAPROTILINE] |  | DILI negative (training set) |
| COC(=O)Nc1nc2ccc(C(=O)c3ccccc3)cc2[nH]1 [MEBENDAZOLE] | DILI positive (training set) |  |
| Cc1ccc(Cl)c(Nc2ccccc2C(=O)[O-])c1Cl.O.[Na+] [MECLOFENAMATE SODIUM] | DILI positive (training set) |  |
| CC(=O)O[C@]1(C(C)=O)CC[C@H]2[C@@H]3C[C@H](C)C4=CC(=O)CC[C@]4(C)[C@H]3CC[C@@]21C [MEDROXYPROGESTERONE ACETATE] | DILI negative (training set) |  |
| Cc1cccc(Nc2ccccc2C(=O)O)c1C [MEFENAMIC ACID] |  | DILI positive (training set) |
| COc1ccc2[nH]cc(CCNC(C)=O)c2c1 [MELATONIN] | DILI negative (training set) |  |
| Cc1cnc(NC(=O)C2=C(O)c3ccccc3S(=O)(=O)N2C)s1 [MELOXICAM] | DILI negative (test set) |  |
| CC12CC3CC(C)(C1)CC(N)(C3)C2 [MEMANTINE] | DILI negative (training set) |  |
| CC1=CC(=O)c2ccccc2C1=O [MENADIONE] | DILI positive (test set) |  |
| CCC1(c2ccccc2)C(=O)NC(=O)N(C)C1=O (configuration not stated) [MEPHOBARBITAL] | DILI positive (test set) |  |
| CCCC(C)(COC(N)=O)COC(N)=O [MEPROBAMATE] | DILI positive (test set) |  |
| CN1CCCCC1CCN1c2ccccc2Sc2ccc([S+](C)[O-])cc21.O=S(=O)(O)c1ccccc1 (configuration not stated) [MESORIDAZINE BESYLATE] |  | DILI positive (training set) |
| C#C[C@]1(O)CC[C@H]2[C@@H]3CCc4cc(OC)ccc4[C@H]3CC[C@@]21C [MESTRANOL] | DILI positive (test set) |  |
| CC(=O)Nc1cccc(O)c1 [METACETAMOL] | DILI negative (training set) |  |
| CC(C)NCC(O)c1cc(O)cc(O)c1.CC(C)NCC(O)c1cc(O)cc(O)c1.O=S(=O)(O)O (configuration not stated) [METAPROTERENOL SULFATE] | DILI positive (training set) |  |
| CN(C)C(=N)N=C(N)N [METFORMIN] |  | DILI negative (test set) |
| C=C1c2cccc(O)c2C(=O)C2=C(O)[C@]3(O)C(=O)C(C(N)=O)=C(O)[C@@H](N(C)C)[C@@H]3[C@@H](O)[C@H]12.Cl [METHACYCLINE HYDROCHLORIDE] | DILI positive (training set) |  |
| CN(Cc1cnc2nc(N)nc(N)c2n1)c1ccc(C(=O)N[C@@H](CCC(=O)O)C(=O)O)cc1 [METHOTREXATE] | DILI positive (training set) |  |
| COc1ccc(OC)c(C(O)C(C)N)c1.Cl (configuration not stated) [METHOXAMINE HYDROCHLORIDE] | DILI negative (training set) |  |
| COCC(=O)O [METHOXYACETIC ACID] | DILI positive (test set) |  |
| C[C@](N)(Cc1ccc(O)c(O)c1)C(=O)O [METHYLDOPA] | DILI positive (test set) |  |
| CC[C@@H](CO)NC(=O)[C@@H]1C=C2c3cccc4[nH]cc(c34)C[C@H]2N(C)C1.O=C(O)/C=C\C(=O)O [METHYLERGONOVINE MALEATE] | DILI negative (training set) |  |
| COC(=O)C(c1ccccc1)C1CCCCN1 (configuration not stated) [METHYLPHENIDATE] | DILI positive (test set) |  |
| CC[C@@H](CO)NC(=O)[C@@H]1C=C2c3cccc4c3c(cn4C)C[C@H]2N(C)C1.O=C(O)/C=C\C(=O)O [METHYSERGIDE MALEATE] | DILI negative (training set) |  |

Source: ChEMBL document CHEMBL1697723, “A predictive ligand-based Bayesian model for human drug-induced liver injury” (Drug Metab Dispos, 2010)
